From patent publication US3937838A, “Orally active bronchospasmolytic compounds and their preparation” (priority 1966, dated 1976)
“Also recorded” adds a separate entry of the source. Like-named read-outs stand apart in the source and are kept apart here.

Legend:
[1] = tested on: spirally cut trachea from the guinea pig; test: Dual preparation test in vitro, effect on trachea (Example 5c); conditions: slow infusion; 0.375 μg/min where stated; FIGS. 2-4
From the text: (§1) [This procedure is more fully described below in Example 5 (b)].
FIG. 2 illustrates the effect of epinephrine (EPE) and terbutaline on spirally cut trachea and right auricle from the guinea pig. Both preparations are dissected out from the same animal and run under identical experimental conditions;
Both preparations are dissected out from the same animal, and run under identical experimental conditions;
Both preparations are dissected out from the same animal and run under identical experimental conditions;
The relation between the heart stimulatory effect and bronchodilator effect was studied in vitro on auricle-trachea-preparation from the guinea pig in order to compare the effect on the heart and the effect on the bronchial muscle under identical experimental conditions. Both spontaneously bearing auricle and spirally-cut trachea were placed in the same bath in Krebs solution. Both preparations were taken from the same animal.
The compound to be tested was slowly infused into the bathing solution and the tension was measured for each of the auricle and trachael preparations.
In carrying out this dual preparation test, epinephrine was used as a reference. […] Infusion of epinephrine was made over a period of ten minutes. After washing and recovery, the test solution was infused in the same manner and the effect of the test compound was compared with the effect of epinephrine.

isolated rabbit heart = test: Effect on isolated heart, Langendorff preparation (Example 5d)
Protocol: The effect of the compound of the present invention was also studied on isolated rabbit heart (Langendorff preparation) the method used as described by Anden et al. (Acta Pharmacol. et Toxicol., 21 (1964) page 247). In this procedure, the isolated heart is mounted in a Krebs solution and the test compound is injected into it. Measurements are continuously recorded of the rate and force of contraction.
The tests using epinephrine establish a standard of comparison to evaluate subsequent test compounds in the same preparation.

[2] = tested on: spirally cut trachea from the guinea pig; test: Bronchospasmolytic effect in vitro (Example 5a), spirally cut trachea; conditions: at ED50; pilocarpine contracted; racemic terbutaline
Protocol: Pharmacol. Exp. Ther. 90 (1947) page 104] and later modified by Constantine [J. Pharm. Pharmacol. 17 (1965) page 384]. In this test, guinea pigs are stunned with a blow on the head and bled to death. The trachea is dissected out, cut spirally and mounted in an organ bath (25 ml) in Krebs solution continuously aerated with oxygen (95%) and carbon dioxide (5%). […] The tension of the preparation is measured and is usually about 2 gm. initially. Dose response curves for epinephrine and each of the test compounds are then evaluated on the same muscle preparation.

[3] = tested on: bronchial muscle and heart
From the text: as §1

[4] = tested on: cardioaccelerating effect; conditions: in vivo
From the text: as §1

[5] = tested on: bronchoconstriction by histamine aerosol; test: Protecting effect against histamine aerosol in guinea pigs (Example 15); type: in vivo, guinea pig; conditions: Cavia porcellus, read-out: ED50 (protecting 50 percent of the animals for more than 4 minutes)
From the text: Male guinea pigs (200--300 g) were used. Bronchoconstriction was produced by letting the animals inhale a histamine aerosol.

bronchial asthma = test: Clinical study in asthmatic patients (Example 6); type: in vivo, human
Protocol: All the patients were hospitalized for severe bronchial asthma. Before the patients were selected for the trial, spirometry was performed before and after isoprenaline inhalations to make sure that their obstruction was at least partly reversible by bronchodilating drugs. The tests were performed when the patients were in a relatively steady state of moderate asthmatic discomfort. Every morning during the trial control measurements of forced expiratory volume in one second (FEV1.0) were made. These values had to be less than 70% of the predicted normal value taking in consideration sex, age and heights. All the patients were under treatment of different drugs for their asthma. Other bronchodilating drugs were withdrawn at least 6 hours before the start of the measurements. Most of the patients were treated with steroids, antibiotics and expectorants before the start of the trial. This regimen was continued unchanged during the trial period.
Twenty-four took part in the study, 10 male and 14 female. Average age was 51 years (range 15-71 years), mean body weight 64 kg (range 44-88 kg.) and height 166 cm (range 150-187 cm).
The trial was performed as a double blind study during three consecutive days with the patients serving as their own control. […] The order of treatment was randomized according to the principle of Latin squares.
Lung function tests were made immediately before the administration of the tablets and after 1, 2, 3, 5 and 7 hours. FEV1.0 was measured using a Vitalograph spirometer. The highest value of three measurements on each occasion was used in the calculations. All the patients had been trained to perform the tests the day before the start of the trial. After 3 and 7 hours, the patients were questioned for side effects. The same, specially trained, nurse assisted throughout the whole investigation.
The "Student's" t-test was used for statistical evaluation of the results. The degree of significance for the differences is given as almost significant (p<0.05^x) significant (p<0.01^xx) and highly significant (p<0.001^xxx).

[6] = tested on: histamine induced bronchoconstriction; test: Bronchospasmolytic effect in vivo, Konzett and Rossler (Example 5b); design: species or system guinea pig; conditions: intravenous; histamine-induced bronchospasm; FIG. 1
Protocol: Orciprenaline and terbutaline were also tested in vivo according to the method described by Konzett and Rossler [Arch. Exp. Path. Pharmak. 195 (1940) page 71]. In the method of Konzett and Rossler, the animal is ventilated with a constant volume of air. When a certain pressure has been reached in the lung, the volume of air which is in excess of the pulmonary capacity will escape through the valve. This surplus of air is recorded. The testing compounds in the Konzett and Rossler method, bronchial contraction is provoked by administration of histamine. The histamine reduced the capacity of the airways, and the measured overflow increases. In order to see to what extent a test compound counteracts the histamine-induced bronchospasm, the animal is first given an injection of the test compound which is followed 3 minutes later by exposure to histamine.

asthmatic patients = test: Clinical trials, arterial oxygen tension in asthmatic patients; type: in vivo, human; conditions: a number of clinical trials
From the text: Because stimulation of the cardiovascular system is thought to be a cause of the adverse effects of many of the prior art compounds on blood oxygen pressures, it is expected that the compounds of the present invention will be less likely to lead to a fall in blood oxygen pressure then compounds such as epinephrine or isoprenaline. The compounds of the present invention have the added advantage of improved longevity of action over all of the compounds described above. […] This improvement has been observed in a number of clinical trials.

## CC(C)(C)NCC(O)c1cc(O)cc(O)c1 (racemic) [terbutaline, 1-(3',5'-dihydroxyphenyl)-2-(t-butylamino)-ethanol]
[1]
  effect on trachea (relaxation): nearly comparable to that of epinephrine infused at the same rate
Isolated rabbit heart; cardiac/cardioaccelerating effect, FIGS. 5, 6
  effect on isolated heart relative to epinephrine: about one-fiftieth
Isolated rabbit heart; injection, FIG. 5
  effect on rate and force of isolated heart: weak
[2]
  relaxation of trachea, activity relative to orciprenaline: about two
  relaxation of trachea, potency relative to (-)-epinephrine: slightly less potent than (-)-epinephrine
[3]
  duration of effect versus orciprenaline: longer than that of orciprenaline
[3]; in vitro and in vivo
  bronchodilator potency versus orciprenaline: more potent bronchodilator
[4]
  cardioaccelerating effect: weak cardioaccelerating effect
[5]; 0.5 h, oral, 30 minutes before histamine
  ED50: 0.4 mg/kg
[5]; ip, 0.25 h, i.p., 15 minutes before histamine
  ED50: 0.15 mg/kg
Bronchial asthma; 5 mg terbutaline versus 20 mg orciprenaline, oral
  maximum effect and duration of effect versus orciprenaline: superior to 20 mg of orciprenaline
Bronchial asthma; oral
  circulatory effects: negligible circulatory effects
Bronchial asthma; oral single dose
  time of maximal response (FEV1.0): 3 h
Bronchial asthma; oral, presumably
  duration of action: > 5 h
Bronchial asthma; oral, terbutaline 5.0 mg, orciprenaline 20 mg, FIG. 9
  increase of FEV1.0: clearcut increase of the spirometric values; also recorded: significantly greater than that of orciprenaline; also recorded: effective in relaxing bronchial obstruction in asthmatic patients
[6]
  bronchospasmolytic effect relative to orciprenaline: twice
Asthmatic patients
  arterial oxygen tension: improved arteriel oxygen tension in asthmatic patients
